{
  "source": "paper PMC11428108",
  "about": "(Frontiers in Molecular Neuroscience, 2024)",
  "key": {"[1]": {"tested_on": "Chrna5^+/+ and Chrna5^−/− mice", "assay": "Open-field locomotor activity, SR9883 alone or with nicotine", "type": "in vivo", "conditions": "for Cumulative distance traveled during 60 min session: SR9883 5 or 10 mg kg^−1 IP", "description": "Locomotor activity was assessed in an open-field apparatus (40 cm × 40 cm; Omnitech Electronics Inc.) under low illumination (~30 radiometric lux). Mice were habituated to the apparatus for 60 min on the day before treatments commenced. On test days, mice received a total of two systemic injections. First, mice were injected intraperitoneally with SR9883 (0, 5, 10 mg kg^−1) and returned to their home cages. […] Mice were then placed in the center of the apparatus and the total distance they traveled was recorded for 60 min (Fusion software, Omnitech Electronics Inc.). Concentration-response curves of SR9883 actions in nAChR-expressing HEK cells and oocytes were fitted to the Hill equation using a nonlinear least squares curve fit method and efficacy and potency values were calculated as previously described ([Wang et al., 2015]). Plasma and brain levels of SR9983 after oral administration were compared using a two-tailed paired t test. […] For the ICSS threshold experiment, percentages of baseline reward threshold scores were calculated by expressing the absolute threshold scores as a percentage of the scores obtained during baseline. The baseline values were the mean thresholds on the three sessions prior to drug injections. Response latency data were analyzed in the same manner as the threshold data. […] Effects of SR9883 on responding for food pellets in rats was analyzed by a two-tailed paired t test. […] Significant main or interaction effects in ANOVAs were followed by Bonferroni or Newman–Keuls post-hoc tests as appropriate. All statistical analyses were performed using GraphPad Prism software with α set to 0.05."}, "male Wistar rats": {"tested_on": "male Wistar rats", "assay": "Operant responding for food pellets (FR5TO20)", "type": "in vivo", "conditions": "SR9883 10 mg kg^−1 IP, food-restricted rats; p = 0.9868", "description": "Operant chambers (Med Associates, East Fairfield, VT, United States) were used to assess responding by rats for food pellets and intravenous nicotine infusions. […] All rats were food-restricted to maintain their body weight at approximately 85% that of free-feeding weights. They were then trained to press an active lever for 45 mg food pellets on a fixed ratio 5 time-out 20 s (FR5TO20) schedule of reinforcement. […] Rats responded for food rewards until a reliable responding was achieved, defined as >90 pellets earned per 60 min session across three consecutive sessions. […] Rats were anesthetized using 1–3% isoflurane inhalation in oxygen and catheters were implanted into the left jugular vein. […]\nConcentration-response curves of SR9883 actions in nAChR-expressing HEK cells and oocytes were fitted to the Hill equation using a nonlinear least squares curve fit method and efficacy and potency values were calculated as previously described ([Wang et al., 2015]). […] For the ICSS threshold experiment, percentages of baseline reward threshold scores were calculated by expressing the absolute threshold scores as a percentage of the scores obtained during baseline. […] Response latency data were analyzed in the same manner as the threshold data. […] Effects of SR9883 on responding for food pellets in rats was analyzed by a two-tailed paired t test. […]"}},
  "data": [
    {"smiles": "N#Cc1cccc(-n2nnc(-c3cccnc3)n2)c1", "note": "[SR9883, 3-(5-(pyridin-3-yl)-2H-tetrazol-2-yl)benzonitrile]", "values": [
      {"measurement": "Locomotor activity (total distance traveled) vs vehicle", "setting": "[1]; SR9883 5 mg kg^−1, nicotine-injected Chrna5^+/+ and Chrna5^−/− mice, p = 0.0002", "result": "reduced"},
      {"measurement": "Locomotor activity (total distance traveled) vs vehicle", "setting": "[1]; SR9883 10 mg kg^−1, nicotine-injected Chrna5^+/+ and Chrna5^−/− mice, p = 0.0049", "result": "reduced"},
      {"measurement": "Cumulative distance traveled during 60 min session", "setting": "[1]; nicotine (0.25 mg kg^−1 SC)-injected Chrna5^+/+ mice, Dose x Time p = 0.0047", "result": "decreased"},
      {"measurement": "Cumulative distance traveled during 60 min session", "setting": "[1]; nicotine (0.25 mg kg^−1 SC)-injected Chrna5^−/− mice, Dose x Time p = 0.0946, not significant", "result": "tended to be decreased"},
      {"measurement": "Cumulative distance traveled during 60 min session", "setting": "[1]; saline-injected Chrna5^+/+ mice", "result": "unchanged"},
      {"measurement": "Cumulative distance traveled during 60 min session", "setting": "[1]; saline-injected Chrna5^−/− mice", "result": "unchanged"},
      {"measurement": "Food responding (food pellets earned)", "setting": "male Wistar rats", "result": "had no effect"}
    ]}
  ]
}
